# Source: article PMC12612088 (Scientific Reports, 2025)
# Molecular target: Pyruvate Dehydrogenase Kinase 3 (PDK3) (Homo sapiens, UniProt Q15120)
# Assay: BIOMOL Green ATPase assay with purified PDK3
# Assay type: biochemical
# Pyruvate Dehydrogenase Kinase 3 (PDK3), sequence (Q15120 whole entry): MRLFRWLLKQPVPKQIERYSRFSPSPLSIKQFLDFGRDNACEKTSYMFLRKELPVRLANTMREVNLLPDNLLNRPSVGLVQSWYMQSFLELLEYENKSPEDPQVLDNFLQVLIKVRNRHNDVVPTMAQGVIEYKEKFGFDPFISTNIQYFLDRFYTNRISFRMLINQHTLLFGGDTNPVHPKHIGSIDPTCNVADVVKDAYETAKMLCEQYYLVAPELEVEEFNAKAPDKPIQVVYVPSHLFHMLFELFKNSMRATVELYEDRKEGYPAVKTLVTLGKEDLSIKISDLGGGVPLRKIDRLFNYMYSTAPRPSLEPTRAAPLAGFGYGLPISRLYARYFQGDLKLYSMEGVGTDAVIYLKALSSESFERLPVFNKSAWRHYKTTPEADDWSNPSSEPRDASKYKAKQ
smiles,measurement,value
"Cc1ccc(O)cc1 [p-C, 4-methylphenol]",IC50,3.52 µM
